Assay [1] deals with GST-tagged KRAS-G12V (2-169) (Homo sapiens, UniProt P01116, G12V). The experiment in a line: Nucleotide exchange assay (NEA), SOS-mediated, HTRF, KRAS G12V. It is filed as biochemical. Particulars: Table 4; IC50 extracted at 90 min; 80 nM SOS. An excerpt: (§1) This activity is tightly regulated by GTPase activating proteins (GAPs) and guanine nucleotide exchange factors (GEFs). GEFs, such as SOS1/2, activate Ras proteins by exchanging GDP for GTP, thus returning Ras to its active conformation (Simanshu, Nissley, & McCormick, 2017). […] Homogenous time resolved fluorescence (HTRF) was used to detect SOS-mediated binding of a fluorescent GTP analog, GTP-DY-647P1 (Jena Biosciences NU-820-647P1) to GST-tagged KRAS-G12D (2-169) or to GST-tagged KRAS-G12V (2-169, Reaction Biology, MSC-11-540).
(§2) GST-tagged KRAS-G12D (2-169) and anti-GST MAb Tb Cryptate Gold (CisBio 61GSTTLB) were diluted into assay buffer (20 mM HEPES, pH 7.3, 150 mM NaCl, 5 mM MgCl2, 0.05% BSA 0.0025% NP40, 1 mM DTT) to prepare a 2.5× donor solution. 5× compound was added to the protein mixture and incubated for 1 h at RT. 2.5× acceptor solution containing SOS1cat (564-1049, Reaction Biology MSC-11-502) and GTP-DY-647P1 were then added to the donor KRAS mixture such that the final concentration of the reaction contained 0.25 nM GST-tagged KRAS-G12D (2-169), 20 nM SOScat, and 150 nM GTP-DY-647P1. The reaction was monitored using at RT with the Envision multimode plate reader (Ex/Em 337/665, […]) up to 90 minutes at 5 minute intervals. To monitor KRAS-G12V SOS-mediated nucleotide exchange, 80 nM SOS was added to reaction instead of 20 nM. All other components were the same as previously described. Data was blanked to reactions without SOS1 and % inhibition was calculated such that DMSO only =0% and blank=100%. Curve fitting was done using a 4 parameter fit. Reported IC50 values were extracted at 30 min and 90 min for the KRAS-G12D and KRAS-G12V assays, respectively.
On the technique in general: In TR-FRET formats the signal depends on donor and acceptor labels being close together.

Assay [2] addresses GST-tagged KRAS-G12D (2-169) (Homo sapiens, UniProt P01116, G12D). The experiment in a line: Nucleotide exchange assay (NEA), SOS-mediated, HTRF, KRAS G12D. It counts as biochemical. Particulars: Table 4; IC50 extracted at 30 min; 20 nM SOScat; read-out: NEA G12D IC50.
Excerpt: as §1, §2
NEA KRAS G12D IC50 (uM) values of selected compounds are depicted in Table 2 with compounds having a value <0.01 uM as ++++; ≥0.01 uM to 0.1 uM as +++; ≥0.1 uM to 1 uM as ++; ≥1 uM to 20 uM as +; and ≥20 uM as NA.

The values below come from US12421254B2, “KRAS modulators and uses thereof” (Quanta Therapeutics, Inc., priority 2023, dated 2025).

As a reminder, the IC50 is the point on the concentration scale where inhibition reaches its midpoint.

Chain of GST-tagged KRAS-G12V (2-169) (P01116 2-169 isoform P01116-2 G12V): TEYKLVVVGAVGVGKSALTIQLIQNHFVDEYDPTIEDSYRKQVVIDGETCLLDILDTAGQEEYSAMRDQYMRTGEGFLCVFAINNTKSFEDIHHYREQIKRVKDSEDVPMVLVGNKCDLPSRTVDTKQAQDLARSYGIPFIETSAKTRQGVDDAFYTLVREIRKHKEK
Chain of GST-tagged KRAS-G12D (2-169) (P01116 2-169 isoform P01116-2 G12D): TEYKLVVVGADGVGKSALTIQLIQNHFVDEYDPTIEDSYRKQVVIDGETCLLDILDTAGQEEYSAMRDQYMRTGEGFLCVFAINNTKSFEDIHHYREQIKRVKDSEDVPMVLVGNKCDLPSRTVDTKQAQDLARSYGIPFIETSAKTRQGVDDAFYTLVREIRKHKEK

Regarding `C[C@@]1(O)CCCN(c2nc(OC[C@@]34CCCN3C[C@H](F)C4)nc(N3CC4(C3)c3c(sc(N)c3C#N)CS4(=O)=O)n2)C1` (racemic) [Compound 113, 2-amino-5,5-dioxo-1′-[4-[[rac-(2R,8S)-2-fluoro-1,2,3,5,6,7-hexahydropyrrolizin-8-yl]methoxy]-6-[rac-(3R)-3-hydroxy-3-methyl-1-piperidyl]-1,3,5-triazin-2-yl]spiro[6H-thieno[3,4-b]thiophene-4,3′-azetidine]-3-carbonitrile], the IC50 in assay [1] and in assay [2] was 100 to 1000 nM in each case.
In the case of `CN(Cc1cc(C(N)=O)nn1C)c1nc(OC[C@@]23CCCN2C[C@H](F)C3)nc(N2CC3(CCc4sc(N)c(C#N)c43)C2)n1` [Compound 135, 5-[[[4-(2-amino-3-cyano-spiro[5,6-dihydrocyclopenta[b]thiophene-4,3′-azetidine]-1′-yl)-6-[[(2R,8S)-2-fluoro-1,2,3,5,6,7-hexahydropyrrolizin-8-yl]methoxy]-1,3,5-triazin-2-yl]-methyl-amino]methyl]-1-methyl-pyrazole-3-carboxamide], the IC50 in assay [1] and in assay [2] was 100 to 1000 nM each time.
Consider `N#Cc1c(N)sc2c1C1(CC2)CN(c2nc(OC[C@@]34CCCN3C[C@H](F)C4)nc(OC3CCOC3)n2)C1` (stereo partly drawn) [Compound 78, 2-amino-1′-[4-[[(2R,8S)-2-fluoro-1,2,3,5,6,7-hexahydropyrrolizin-8-yl]methoxy]-6-tetrahydrofuran-3-yloxy-1,3,5-triazin-2-yl]spiro[5,6-dihydrocyclopenta[b]thiophene-4,3′-azetidine]-3-carbonitrile; formic acid], for which the IC50 in assay [1] lay within 100 to 1000 nM; in assay [2], 1000 to 20000 nM.
For `N#Cc1c(N)sc2c1C1(CN(c3nc(OC[C@@]45CCCN4C[C@H](F)C5)nc(N4C5COCC4C5)n3)C1)SC2` [Compound 265, 2-amino-1′-[4-[[(2R,8S)-2-fluoro-1,2,3,5,6,7-hexahydropyrrolizin-8-yl]methoxy]-6-(3-oxa-6-azabicyclo[3.1.1]heptan-6-yl)-1,3,5-triazin-2-yl]spiro[6H-thieno[3,4-b]thiophene-4,3′-azetidine]-3-carbonitrile], the values for the IC50 in assay [1] and in assay [2] were 10 to 100 nM and 100 to 1000 nM, respectively.
Regarding `C[C@@H]1[C@H](C#N)CCCN1c1nc(OC[C@@]23CCCN2C[C@H](F)C3)nc(N2CC3(CCc4sc(N)c(C#N)c43)C2)n1` (racemic) [Compound 29, 2-amino-1′-[4-[rac-(2R,3R)-3-cyano-2-methyl-1-piperidyl]-6-[[(2R,8S)-2-fluoro-1,2,3,5,6,7-hexahydropyrrolizin-8-yl]methoxy]-1,3,5-triazin-2-yl]spiro[5,6-dihydrocyclopenta[b]thiophene-4,3′-azetidine]-3-carbonitrile], the IC50 in assay [1] and in assay [2] was 100 to 1000 nM in each case.
With `CCN(c1nc(OCC23CCC(CN(C)C2)N3C)nc(N2CC3(C2)SCc2sc(N)c(C#N)c23)n1)[C@H](C)c1cccnc1N` (stereo partly drawn) [Compound 218, 2′-amino-1-(4-(((R)-1-(2-aminopyridin-3-yl)ethyl)(ethyl)amino)-6-((3,8-dimethyl-3,8-diazabicyclo[3.2.1]octan-1-yl)methoxy)-1,3,5-triazin-2-yl)-6′H-spiro[azetidine-3,4′-thieno[3,4-b]thiophene]-3′-carbonitrile], the IC50 in assay [1] is < 10 nM; in assay [2] it was 10 to 100 nM.
With `N#Cc1c(N)sc2c1C1(CN(c3nc(OC[C@@]45CCCN4C[C@H](F)C5)nc(N4C5CCC4CC(=O)NC5)n3)C1)SC2` (stereo partly drawn) [Compound 271, 2-amino-1′-[4-[[(2R,8S)-2-fluoro-1,2,3,5,6,7-hexahydropyrrolizin-8-yl]methoxy]-6-(4-oxo-3,9-diazabicyclo[4.2.1]nonan-9-yl)-1,3,5-triazin-2-yl]spiro[6H-thieno[3,4-b]thiophene-4,3′-azetidine]-3-carbonitrile], the IC50 in assay [1] lay within 100 to 1000 nM; in assay [2] it was 1000 to 20000 nM.
Turning to `CC(c1cccnc1C(F)F)N(C)c1nc(OC[C@@]23CCCN2C[C@H](F)C3)nc(N2CC3(C2)SCc2sc(N)c(C#N)c23)n1` (stereo partly drawn) [Compound 205, 2-amino-1′-[4-[1-[2-(difluoromethyl)-3-pyridyl]ethyl-methyl-amino]-6-[[(2R,8S)-2-fluoro-1,2,3,5,6,7-hexahydropyrrolizin-8-yl]methoxy]-1,3,5-triazin-2-yl]spiro[6H-thieno[3,4-b]thiophene-4,3′-azetidine]-3-carbonitrile], the IC50 in assay [1] was in the range of 100 to 1000 nM; in assay [2], 1000 to 20000 nM.
As to `N#Cc1c(N)sc2c1C1(CN(c3nc(OCC4(CN5CCOCC5)CC4)nc(N4CCNC[C@@H]4CO)n3)C1)SC2` [Compound 185, (R)-2′-amino-1-(4-(2-(hydroxymethyl)piperazin-1-yl)-6-((1-(morpholinomethyl)cyclopropyl)methoxy)-1,3,5-triazin-2-yl)-6′H-spiro[azetidine-3,4′-thieno[3,4-b]thiophene]-3′-carbonitrile], the IC50 is 100 to 1000 nM in assay [1] and < 10 nM in assay [2].
Regarding `N#Cc1c(N)sc2c1C1(CCC2)CN(c2nc(OCC3(C#N)CC3)nc(OC[C@@]34CCCN3C[C@H](F)C4)n2)C1` [Compound 54, 2-amino-1′-[4-[(1-cyanocyclopropyl)methoxy]-6-[[(2R,8S)-2-fluoro-1,2,3,5,6,7-hexahydropyrrolizin-8-yl]methoxy]-1,3,5-triazin-2-yl]spiro[6,7-dihydro-5H-benzothiophene-4,3′-azetidine]-3-carbonitrile], the values for the IC50 in assay [1] and in assay [2] were 10 to 100 nM and 100 to 1000 nM, respectively.
The like results for `CN(c1nc(OC[C@@]23CCCN2C[C@H](F)C3)nc(N2CC3(CCc4sc(N)c(C#N)c43)C2)n1)[C@@H]1COC[C@H]1O` (racemic) [Compound 90, 2-amino-1′-[4-[[(2R,8S)-2-fluoro-1,2,3,5,6,7-hexahydropyrrolizin-8-yl]methoxy]-6-[[rac-(3R,4S)-4-hydroxytetrahydrofuran-3-yl]-methyl-amino]-1,3,5-triazin-2-yl]spiro[5,6-dihydrocyclopenta[b]thiophene-4,3′-azetidine]-3-carbonitrile] were, in that order, 100 to 1000 nM and 100 to 1000 nM.
`N#Cc1c(N)sc2c1C1(CN(c3nc(OC[C@@]45CCCN4C[C@H](F)C5)nc(N4CCC5(CC4)COC5=O)n3)C1)SC2` [Compound 283, 2-amino-1′-[4-[[(2R,8S)-2-fluoro-1,2,3,5,6,7-hexahydropyrrolizin-8-yl]methoxy]-6-(3-oxo-2-oxa-7-azaspiro[3.5]nonan-7-yl)-1,3,5-triazin-2-yl]spiro[6H-thieno[3,4-b]thiophene-4,3′-azetidine]-3-carbonitrile]: the IC50 in assay [1] and in assay [2] was 100 to 1000 nM each time.
Regarding `C[C@]1(O)C[C@H](O)CN(c2nc(OC[C@@]34CCCN3C[C@H](F)C4)nc(N3CC4(CCc5sc(N)c(C#N)c54)C3)n2)C1` [Compound 75, 2-amino-1′-[4-[(3S,5S)-3,5-dihydroxy-3-methyl-1-piperidyl]-6-[[(2R,8S)-2-fluoro-1,2,3,5,6,7-hexahydropyrrolizin-8-yl]methoxy]-1,3,5-triazin-2-yl]spiro[5,6-dihydrocyclopenta[b]thiophene-4,3′-azetidine]-3-carbonitrile], the IC50 in assay [1] was 100 to 1000 nM; in assay [2], 1000 to 20000 nM.
Turning to `CC(c1cccnc1N)N(C)c1nc(OC[C@@H]2CCC(=O)N2)nc(N2CC3(CCc4sc(N)c(C#N)c43)C2)n1` (stereo partly drawn) [Compound 112, 2-amino-1′-[4-[1-(2-amino-3-pyridyl)ethyl-methyl-amino]-6-[[(2S)-5-oxopyrrolidin-2-yl]methoxy]-1,3,5-triazin-2-yl]spiro[5,6-dihydrocyclopenta[b]thiophene-4,3′-azetidine]-3-carbonitrile], the 50% inhibitory concentration (IC50) was in the range of 100 to 1000 nM in assay [1] and 1000 to 20000 nM in assay [2].
Turning to `C[C@H](c1cccnc1N)N(C)c1nc(OC[C@@]23CCCN2C[C@H](F)C3)nc(N2CCC3(CCc4sc(N)c(C#N)c43)C2)n1` (stereo partly drawn) [Compound 195, 2-amino-1′-[4-[methyl-[(1R)-1-(2-amino-3-pyridyl)ethyl]amino]-6-[[(2R,8S)-2-fluoro-1,2,3,5,6,7-hexahydropyrrolizin-8-yl]methoxy]-1,3,5-triazin-2-yl]spiro[5,6-dihydrocyclopenta[b]thiophene-4,3′-pyrrolidine]-3-carbonitrile], the IC50 in assay [1] was < 10 nM; in assay [2] it was 10 to 100 nM.
